Laboratory results reported in patent US7122576B2, “Carbamate compounds for use in preventing or treating bipolar disorder” (priority 2001, dated 2006).

Test system: hippocampal kindled rats
Assay: Hippocampal kindled rat model
Type: in vivo, Sprague-Dawley rats
Parameters: After-Discharge Threshold: unit not given here
Conditions: for Mean Seizure Score: seizure score scale 1-5
Experimental: Hippocampal Kindled Rat Model
In the hippocampal kindling model (Lothman E W, et al., Epilepsy Res., 1988, 2(6) 367–79), adult male Sprague-Dawley rats are surgically implanted with bipolar electrodes. Seizure score is assessed as follows: (1) mouth and facial movements; (2) above symptoms plus head nodding; (3) above symptoms plus forelimb clonus; (4) above symptoms plus rearing; and (5) above symptoms plus falling.

[1] = 50 mg/kg intraperitoneally, n=8
[2] = 100 mg/kg intraperitoneally, n=8
[3] = 200 mg/kg intraperitoneally, n=8
[4] = 300 mg/kg intraperitoneally, 0.25 hr after dose, n=2
[5] = 300 mg/kg intraperitoneally, 1 hr after dose, n=2
[6] = 300 mg/kg intraperitoneally, 2 hr after dose, n=2
[7] = 300 mg/kg intraperitoneally, 4 hr after dose, n=2

Compound: NC(=O)OC[C@H](OC(N)=O)c1ccccc1Cl [enantiomer of Formula (Ib)]
- toxicity of dose (50 mg/kg intraperitoneally): nontoxic
- % Protected [1]: 12.50%
- After-Discharge Duration [1]: 75.88 s
- Mean Seizure Score [1]: 3.75
- effect on after-discharge threshold and duration (50 mg/kg intraperitoneally, n=8 per group, over approximately a 3 hour time period): time-dependent reduction in after-discharge threshold and duration
- % Protected [2]: 33.33%
- After-Discharge Duration [2]: 53.17 s
- Mean Seizure Score [2]: 3
- % Protected [3]: 87.50%
- After-Discharge Duration [3]: 42 s
- Mean Seizure Score [3]: 1.63
- toxicity of dose (300 mg/kg intraperitoneally): nontoxic
- After-Discharge Duration [4]: 44 s
- After-Discharge Threshold [4]: 105
- Mean Seizure Score [4]: 2.5
- After-Discharge Duration [5]: 50 s
- After-Discharge Threshold [5]: >200
- Mean Seizure Score [5]: 1.5
- After-Discharge Duration [6]: 53 s
- After-Discharge Threshold [6]: >200
- Mean Seizure Score [6]: 1.5
- After-Discharge Duration [7]: 111 s
- After-Discharge Threshold [7]: 200
- Mean Seizure Score [7]: 2.5
- effect against the expression of Stage 5 seizures (300 mg/kg intraperitoneally, n=2, over a 4 hour time period): effective
- ED50 (Rattus norvegicus, ip, dose range 50 to 200 mg/kg, intraperitoneally, 95% confidence interval 67.9 to 189.8 mg/kg, read-out: calculated ED50 value for reduction of the seizure score from 5 to 3 or less): 112 mg/kg
- anti-kindling effects (hippocampal-kindled rat model): potent anti-kindling effects
